The source of these data is patent US20150218120A1 (The Regents of the University of California, priority 2011, published 2015).

As usually defined, the IC50 is the concentration that inhibits the measured activity by half. As usually defined, the inhibition is the change of the read-out against control, counted positive when it falls.

Values joined by “and” are separate entries in the source; they are usually repeats but may differ in a detail not shown here. Identical values can stand only once. Like-named read-outs stand apart in the source and are kept apart here.

Data set [1] has as its target T1, HIV-1 IN (Human immunodeficiency virus type 1 group M subtype B, UniProt P12497). Description: HIV-1 IN 3′-processing (3P) gel-based catalytic assay. The class given is biochemical. More on the design: made in house. The source says: As described above, HIV-1 IN has two functions: 3′-processing (3P) and strand transfer (ST).
Gels were dried and reaction products were visualized and quantified with a Typhoon 8600 (GE Healthcare, Little Chalfont, Buckinghamshire, UK).

Data set [2] concerns the target T1, HIV-1 IN. Nature of the data set: HIV-1 IN strand transfer (ST) gel-based catalytic assay. The class given is biochemical. More on the design: made in house. The following applies: for IC50: Strand Transfer IC50, 32P-end labeled oligonucleotides in solution, gel-based separation. The source says:
As described above, HIV-1 IN has two functions: 3′-processing (3P) and strand transfer (ST). […] All 21 RCD compounds were screened for inhibitory activity against the 3P and ST reactions using published protocols (Metifiot M, et al., Biochemistry 49:3715-3722 (2010); Marchand C, Neamati N, & Pommier Y, Methods Enzymol 340:624-633 (2001)).
Some assays use preassembled HIV-1 IN on immobilized oligonucleotides (Pace P, et al., J. Med. Chem. 50(9):2225-2239 (2007)), whereas the assay provided herein uses ^32-P-end labeled oligonucleotides in solution and gel-based separation of the reaction products.
Recombinant HIV-1 IN and oligonucleotide substrates were obtained as previously reported (Marinello et al. Biochemistry 2008, 47, 9345-9354; Metifiot et al. Antimicrob. Agents Chemother. 2011, 55, 5127-5133; Hare et al. Mol. Pharmacol. 2011, 80, 565-572). Integrase reactions were performed in 10 μL total volume including 400 nM HIV-1 IN, 20 nM 5′-end [^32P]-labeled oligonucleotide substrate, and 1 μL inhibitor solution in 50 mM MOPS, pH 7.2, 7.5 mM MgCl2, and 14.3 mM 2-mercaptoethanol Inhibitor dilutions were in DMSO, and DMSO without drug was used as a control. Reactions were incubated at 37° C. for 60 min, terminated by adding 10 μL loading dye (10 mM EDTA, 98% deionized formamide, 0.025% xylene cyanol, and 0.025% bromophenol blue), and were subjected to electrophoresis in 20% polyacrylamide-7 M urea gels. Gels were dried and reaction products were visualized and quantified with a Typhoon 8600 (GE Healthcare, Little Chalfont, Buckinghamshire, UK).

In data set [3] the test system is HIV. Nature of the data set: microbe, parasite or virus in culture. The class given is cell-based. The settings on record: read-out: Antiviral Activity IC50. Here is the method: (§1) In addition to cell-free in vitro assays, eight RCD compounds were examined for inhibition of viral replication (Table 1) (Day J R, et al., J. Virol. Meth. 137(1):125-133 (2006)).
Computational docking was preformed using the Glide software package (Glide v5.5; Schrodinger, Inc.). Enzyme and cell-based assays were performed as previously described (Metifiot M, et al., Biochemistry 49:3715-3722 (2010); Marchand C, Neamati N, & Pommier Y, Methods Enzymol 340:624-633 (2001); Day J R, et al., J. Virol. Meth. 137(1):125-133 (2006)). Complete synthetic and experimental details are provided herein.

The subject of data set [4] is P4R5 cells. Nature of the data set: Toxicity assay on P4R5 cells. The format is cell-based. The following applies: at a concentration of 10 μM.
From the text: as §1

In data set [5] the target is T1, HIV-1 IN. The following applies: read-out: IC50 against the strand transfer reaction of HIV-1 IN, reported value; Pace et al. 2007; preassembled IN on immobilized oligonucleotides; cited from earlier work.
The mark [6] stands for this setting: Human immunodeficiency virus 1, P4/R5, P4R5 cells.

On to `O=C(NCc1ccc(F)cc1)c1ccc2cccc(O)c2n1` [RCD-13, N-(4-Fluorobenzyl)-8-hydroxyquinoline-2-carboxamide], for which the IC50 in data set [1] (read-out: 3'-Processing IC50), in data set [2] and in data set [3] (setting [6]) was greater than 100 µM each time. For the same molecule, the inhibition at 100 µM in data set [2] (read-out: Strand transfer inhibition) is less than 30%.
As for `Cc1cc(=O)c(O)c(C(=O)NCc2ccc(F)cc2)n1C` [RCD-3], the IC50 in data set [1] (read-out: 3'-Processing IC50) and in data set [2] was greater than 100 µM throughout.
On to `O=C(NCc1ccc(F)cc1)c1ccc2ccc[n+]([O-])c2c1O` [RCD-14, 7-((4-Fluorobenzyl)carbamoyl)-8-hydroxyquinoline 1-oxide], for which the IC50 in data set [1] was determined as 40.5 ± 2 µM; in data set [2], 3.8 ± 0.3 µM. The “Toxicity on P4R5 cells” value in data set [4] is reported as “some toxicity”.
In the case of `CNC(=O)c1cccc(C(=O)NCc2ccc(F)cc2)c1O` [RCD-18, N1-(4-Fluorobenzyl)-2-hydroxy-N3-methylisophthalamide], the IC50 in data set [1] is greater than 300 µM; in data set [2], greater than 300 µM; in data set [3] (setting [6]) it was greater than 100 µM.
Regarding `O=C(NCc1ccc(F)cc1)c1cccc(O)c1O` [RCD-8, N-(4-Fluorobenzyl)-2,3-dihydroxybenzamide], the values for the IC50 in data set [1] (read-out: 3'-Processing IC50) and in data set [2] were greater than 100 µM and 39.4 ± 4 µM, respectively.
For `Cc1cc(=O)c(O)c(C(=O)NCc2ccc(F)cc2)o1` [RCD-5], the IC50 in data set [1] (read-out: 3'-Processing IC50) is 59.5 ± 1.4 µM; in data set [2], 0.55 µM and < 15 µM.
With `CNC(=O)c1ccc(C(=O)NCc2ccc(F)cc2)c(O)c1O` [RCD-10, N1-(4-Fluorobenzyl)-2,3-dihydroxy-N4-methylterephthalamide], the IC50 was greater than 200 µM in data set [1]; 1.5 µM and < 15 µM and < 2 µM in data set [2]; less than 4 µM in data set [3] (setting [6]); 4 µM in data set [3] (P4R5 cells).
For the molecule `O=C(NCc1ccc(F)cc1)c1ccc2cccnc2c1O` [RCD-12], the IC50 in data set [3] (setting [6]) was less than 4 µM; in data set [3] (P4R5 cells) it was 2.3 µM.
Turning to `O=C(NCc1ccc(F)cc1)c1ccc(C(=O)NCc2ccc(F)cc2)c(O)c1O` [RCD-11, N1,N4-Bis(4-fluorobenzyl)-2,3-dihydroxyterephthalamide], the IC50 was greater than 300 µM in data set [1] (read-out: 3'-Processing IC50); 1.7 µM and < 2 µM in data set [2].
Turning to `O=C(NCc1ccc(F)cc1)c1cccc(=O)n1O` [RCD-7], the 50% inhibitory concentration (IC50) in data set [1] (read-out: 3'-Processing IC50) was greater than 100 µM; in data set [2] it was 19.7 ± 1.6 µM.
For `O=C(NCc1ccc(F)cc1)c1ccccc1O` [RCD-15, N-(4-Fluorobenzyl)-2-hydroxybenzamide], in that order: greater than 100 µM and greater than 100 µM.
Turning to `O=C(NCc1ccc(F)cc1)c1cccc(C(=O)NCc2ccc(F)cc2)[n+]1[O-]` [RCD-17, 2,6-Bis((4-fluorobenzyl)carbamoyl)pyridine 1-oxide], the figures for the IC50 in data set [1], in data set [2] and in data set [3] (setting [6]) were greater than 300 µM, greater than 100 µM and greater than 100 µM, respectively.
Consider `Cc1nc(C(=O)NCc2ccc(F)cc2)c(O)c(=O)[nH]1` [RCD-1, N-(4-Fluorobenzyl)-5-hydroxy-2-methyl-6-oxo-1,6-dihydropyrimidine-4-carboxamide], for which the IC50 in data set [1] is greater than 100 µM; in data set [2], ~1 µM and 1 µM; in data set [5], 0.06 µM. In addition, the “Selectivity for ST versus 3P reaction” value in data set [2] (ST versus 3P) is listed as “selectivity for the ST versus 3P reaction”.
As to `O=C(NCc1ccc(F)cc1)c1occc(=O)c1O` [RCD-4], the IC50 is greater than 100 µM in data set [1] (read-out: 3'-Processing IC50) and 0.96 µM in data set [2].
As for `Cc1occ(O)c(=O)c1C(=O)NCc1ccc(F)cc1`, the IC50 in data set [1] (read-out: 3'-Processing IC50) was greater than 100 µM; in data set [2], 56 ± 7 µM.
For `Cn1ccc(=O)c(O)c1C(=O)NCc1ccc(F)cc1` [RCD-2], in that order: greater than 100 µM and greater than 100 µM.
`COc1cccc(C(=O)NCc2ccc(F)cc2)c1O` [RCD-9, N-(4-Fluorobenzyl)-2-hydroxy-3-methoxybenzamide]: the IC50 in data set [1] (read-out: 3'-Processing IC50) and in data set [2] was greater than 100 µM throughout. For the same molecule, the “Strand transfer activity in words” value in data set [2] (concentrations as high as 100 μM) was “complete loss of activity”.
Consider `O=C(O)c1cccc(C(=O)NCc2ccc(F)cc2)[n+]1[O-]` [RCD-16, 2-Carboxy-6-((4-fluorobenzyl)carbamoyl)pyridine 1-oxide], for which the 50% inhibitory concentration (IC50) in data set [1] (read-out: 3'-Processing IC50) was determined as 21.4 ± 3 µM; in data set [2] it was 9.2 ± 1.3 µM.
For `O=C(NCc1ccc(F)cc1)c1cccc(C(=O)NCc2ccc(F)cc2)c1O` [RCD-19, N1,N3-Bis(4-fluorobenzyl)-2-hydroxyisophthalamide], in that order: greater than 300 µM and greater than 300 µM.
